# Experimental data from ChEMBL document CHEMBL1133787, “Solid-phase optimisation of achiral amidinobenzyl indoles as potent and selective factor Xa inhibitors” (Bioorg Med Chem Lett, 2001).
# What was measured:
# Prothrombin = Prothrombin (Homo sapiens, UniProt P00734); assay: Inhibitory activity against thrombin was determined
# Coagulation factor X = Coagulation factor X (Homo sapiens, UniProt P00742); assay: Inhibitory activity against serine protease factor Xa (fXa) was determined
# Coagulation factor X, sequence (P00742 41-179 limits assumed): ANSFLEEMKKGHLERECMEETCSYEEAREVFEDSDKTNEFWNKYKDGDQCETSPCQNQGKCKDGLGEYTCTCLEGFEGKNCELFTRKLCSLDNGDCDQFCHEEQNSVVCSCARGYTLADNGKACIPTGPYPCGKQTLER
# Coagulation factor X, sequence (P00742 235-488 limits assumed): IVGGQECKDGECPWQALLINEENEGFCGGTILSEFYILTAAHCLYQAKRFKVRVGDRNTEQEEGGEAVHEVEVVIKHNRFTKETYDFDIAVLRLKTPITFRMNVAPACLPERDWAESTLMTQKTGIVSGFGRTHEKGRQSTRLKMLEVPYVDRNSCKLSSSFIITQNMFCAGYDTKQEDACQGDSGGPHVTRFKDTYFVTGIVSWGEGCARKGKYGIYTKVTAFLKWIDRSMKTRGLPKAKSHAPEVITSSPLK
Structure (SMILES),Ki (Prothrombin),Ki (Coagulation factor X)
N=C(N)c1cccc(CNC(=O)c2cc3c(O)cccc3n2Cc2cccc(C(=N)N)c2)c1,3600 nM,
N=C(N)c1cccc(Cn2c(C(=O)Nc3cc(Cl)cc(Cl)c3)cc3c(O)cccc32)c1,,798 nM
N=C(N)c1cccc(Cn2c(C(=O)NCCc3cccc(Cl)c3)cc3c(O)cccc32)c1,,707 nM
N=C(N)c1cccc(Cn2c(C(=O)NCc3cc(Cl)cc(Cl)c3)cc3c(O)cccc32)c1,771 nM,5 nM

# The next lines start with the values.
Ki (Prothrombin),Ki (Coagulation factor X),Structure (SMILES)
12000 nM,28 nM,C[N+](C)(C)c1ccc(CNC(=O)c2cc3cc(O)ccc3n2Cc2cccc(C(=N)N)c2)cc1
620 nM,11 nM,Cc1cc(C)cc(CNC(=O)c2cc3c(O)cccc3n2Cc2cccc(C(=N)N)c2)c1
,84 nM,N=C(N)c1cccc(CNC(=O)c2cc3cc(N)ccc3n2Cc2cccc(C(=N)N)c2)c1
,262 nM,N=C(N)c1cccc(Cn2c(C(=O)NCc3cccc(Cl)c3)cc3c(O)cccc32)c1
